Like-named read-outs stand apart in the source and are kept apart here.
Columns and labels:
[1] = target: His-GST-TVMV-hRIPK1 (1-324) (Homo sapiens (Human), UniProt Q13546); test: biochemical
[2] = tested on: MLKL phosphorylation in HT29-L23 human colorectal adenocarcinoma cells; test: MLKL Phosphorylation High-Content Assay; format: cell-based; settings: 6 h, necroptosis induced with TNFα, SMAC mimetic and Z-VAD, read-out: pMLKL (IC50)
In short: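 HT29-L23 cells were induced to necroptosis with TNFα (35 ng/mL), SMAC mimetic (700 nM) and Z-VAD (140 nM) for 6 h at 37 °C. Phospho-MLKL (S358) immunofluorescence was imaged and quantified per cell; maximal inhibition set by Nec-1s (6.25 μM), and IC50/Ymax from 4-parameter logistic fit.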

His-GST-TVMV-hRIPK1 (1-324), sequence (Q13546 1-324): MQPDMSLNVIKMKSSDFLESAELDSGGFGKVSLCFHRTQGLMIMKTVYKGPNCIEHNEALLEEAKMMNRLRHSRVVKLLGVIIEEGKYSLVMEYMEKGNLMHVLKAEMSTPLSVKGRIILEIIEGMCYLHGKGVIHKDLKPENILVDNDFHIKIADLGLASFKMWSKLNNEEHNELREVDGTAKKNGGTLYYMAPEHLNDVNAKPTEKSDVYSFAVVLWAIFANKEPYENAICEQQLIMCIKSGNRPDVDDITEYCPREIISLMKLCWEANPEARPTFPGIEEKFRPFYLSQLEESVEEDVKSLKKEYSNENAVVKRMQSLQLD

SMILES	IC50 [1] [nM]	IC50 ([2]; Homo sapiens) [nM]	IC50 [2] [nM]
[2H]C([2H])([2H])N(C1CCC(NC(=O)c2n[nH]c3cc(-c4cnc(OC)c(C(=O)NCc5ccccc5OC(F)(F)F)c4)ccc23)CC1)C([2H])([2H])[2H] (stereo not drawn) [Example 188, N-{4-[di(deutero)methylamino]-cyclohexyl}-6-[6-methoxy-5-({[2-(trifluoromethoxy)phenyl]-methyl}carbamoyl)pyridin-3-yl]-1H-indazole-3-carboxamide]	23	130	
[2H]C([2H])([2H])Oc1ncc(-c2ccc3c(C(=O)NC([2H])([2H])C([2H])([2H])[2H])n[nH]c3c2)cc1C(=O)N[C@H](C)c1cccc(C(F)(F)F)c1 [Example 229, N-[(1,1,2,2,2-deutero)ethyl]-6-[6-(deutero)methoxy-5-{[(1R)-1-[3-(trifluoromethyl)phenyl]ethyl]car-bamoyl}pyridin-3-yl]-1H-indazole-3-carboxamide]	210	82	
CCC(c1ccccc1)n1nnc(-c2cc(-c3ccc4c(C(=O)NC)n[nH]c4c3)cnc2OC)n1 (single isomer, unassigned) [Example 18-2, 6-(6-methoxy-5-(2-(l-phenylpropyl)-2H-tetrazol-5-yl)pyridin-3-yl)-N-methyl-1H-indazole-3-carboxamide]	100		310
CNC(=O)c1n[nH]c2cc(-c3cnc(OC)c(C(=O)NC4CCCC(c5ccccc5)C4)c3)ccc12 (single isomer, unassigned) [Example 21-2, 6-{6-methoxy-5-[(3-phenylcyclohexyl)carbamoyl]pyridin-3-yl}-N-methyl-1H-indazole-3-carboxamide]	5.9		13
[2H]C([2H])([2H])Oc1ncc(-c2ccc3c(C(=O)NC([2H])([2H])C([2H])([2H])[2H])n[nH]c3c2)cc1C(=O)N[C@@H](C)c1cc(OC(F)(F)F)ccc1F [Example 224, N-[(1,1,2,2,2-deutero)ethyl]-6-(5-{[(1S)-1-[2-fluoro-5-(trifluorometh-oxy)phenyl]ethyl]carbamoyl}-6-(deutero)methoxypyridin-3-yl)-1H-indazole-3-carboxamide]	17	12	
CNC(=O)c1n[nH]c2cc(-c3cnc(OC)c(C(=O)NC4CCCC(c5ccccc5)C4)c3)ccc12 (single isomer, unassigned) [Example 21-4, 6-{6-methoxy-5-[(3-phenylcyclohexyl)carbamoyl]pyridin-3-yl}-N-methyl-1H-indazole-3-carboxamide]	2		2
CNC(=O)c1n[nH]c2cc(-c3cnc(OC)c(C(=O)NC4CCCC(c5ccccc5)C4)c3)ccc12 (single isomer, unassigned) [Example 21-3, 6-{6-methoxy-5-[(3-phenylcyclohexyl)carbamoyl]pyridin-3-yl}-N-methyl-1H-indazole-3-carboxamide]	22		8.1
[2H]C([2H])([2H])Oc1ncc(-c2ccc3c(C(=O)NC([2H])([2H])C([2H])([2H])[2H])n[nH]c3c2)cc1C(=O)N[C@@H](C)c1cc(C(F)(F)F)ccc1F [Example 226, N-[(1,1,2,2,2-deutero)ethyl]-6-(5-{[(1S)-1-[2-fluoro-5-(trifluoro-methyl)phenyl]ethyl]carbamoyl}-6-(deutero)methoxypyridin-3-yl)1H-indazole-3-carboxamide]	57	41	
[2H]C([2H])([2H])Oc1ncc(-c2ccc3c(C(=O)NC([2H])([2H])C([2H])([2H])[2H])n[nH]c3c2)cc1C(=O)NCC[C@@H](O)c1ccc(Cl)cc1 [Example 237, 6-(5-{[(3R)-3-(4-chlorophenyl)-3-hydroxypropyl]carbamoyl}-6-(deutero)methoxypyridin-3-yl)-N-[(1,1,2,2,2-deutero)ethyl]-1H-indazole-3-carboxamide]	6.3	14	
[2H]C([2H])([2H])NC(=O)c1n[nH]c2cc(-c3cnc(OC)c(-c4nnn(C(C)c5ccc(F)cc5)n4)c3)ccc12 (single isomer, unassigned) [Example 19-1, 6-(5-(2-(1-(4-fluorophenyl)ethyl)-2H-tetrazol-5-yl)-6-methoxypyridin-3-yl)-N-(methyl-d3)-1H-indazole-3-carboxamide]	42		14
[2H]C([2H])([2H])Oc1ncc(-c2ccc3c(C(=O)NC([2H])([2H])C([2H])([2H])[2H])n[nH]c3c2)cc1C(=O)N[C@@H](C)CC(=O)OC(C)(C)C [Example 238, tert-butyl (3S)-3-{[5-(3-{[(1,1,2,2,2-deutero)ethyl]carbamoyl}-1H-indazol-6-yl)-2-(deutero)methoxy-pyridin-3-yl]formamido}butanoate]	47	41	
CNC(=O)c1n[nH]c2cc(-c3cnc(OC)c(C(=O)NC4CCCC(c5ccccc5)C4)c3)ccc12 (single isomer, unassigned) [Example 21-1, 6-{6-methoxy-5-[(3-phenylcyclohexyl)carbamoyl]pyridin-3-yl}-N-methyl-1H-indazole-3-carboxamide]	3.5		8.3
[2H]C([2H])([2H])Oc1ncc(-c2ccc3c(C(=O)NC([2H])([2H])C([2H])([2H])[2H])n[nH]c3c2)cc1C(=O)N[C@H](C)c1cccc(OC(F)(F)F)c1 [Example 231, N-[(1,1,2,2,2-deutero)ethyl]-6-[6-(deutero)methoxy-5-{[(1R)-1-[3-(trifluoromethoxy)phenyl]ethyl]-carbamoyl}pyridin-3-yl]-1H-indazole-3-carboxamide]	48	10	
[2H]C([2H])([2H])Oc1ncc(-c2ccc3c(C(=O)NC([2H])([2H])C([2H])([2H])[2H])n[nH]c3c2)cc1C(=O)N[C@H](C)c1ccccc1C(F)(F)F [Example 235, N-[(1,1,2,2,2-deutero)ethyl]-6-[6-(deutero)methoxy-5-{[(1R)-1-[2-(trifluoromethyl)phenyl]ethyl]car-bamoyl}pyridin-3-yl]-1H-indazole-3-carboxamide]	34	48	
CCC(c1ccccc1)n1nnc(-c2cc(-c3ccc4c(C(=O)NC)n[nH]c4c3)cnc2OC)n1 (single isomer, unassigned) [Example 18-1, 6-(6-methoxy-5-(2-(l-phenylpropyl)-2H-tetrazol-5-yl)pyridin-3-yl)-N-methyl-1H-indazole-3-carboxamide]	5.5		7.3
[2H]C([2H])([2H])Oc1ncc(-c2ccc3c(C(=O)NC(C)C)n[nH]c3c2)cc1C(=O)NC(C)c1ccccc1OC(F)(F)F (racemic) [Example 22, (rac)-N-isopropyl-6-(6-methoxyd3-5-((1-(2-(trifluoromethoxy)phenyl)ethyl)carbamoyl)pyridin-3-yl)-1H-indazole-3-carboxamide]	100	440	
[2H]C([2H])([2H])NC(=O)c1n[nH]c2cc(-c3cnc(OC)c(-c4nnn(C(C)c5ccc(F)cc5)n4)c3)ccc12 (single isomer, unassigned) [Example 19-2, 6-(5-(2-(1-(4-fluorophenyl)ethyl)-2H-tetrazol-5-yl)-6-methoxypyridin-3-yl)-N-(methyl-d3)-1H-indazole-3-carboxamide]	100		64
[2H]C([2H])([2H])Oc1ncc(-c2ccc3c(C(=O)NC4CC4)n[nH]c3c2)cc1C(=O)N[C@@H](C)CC(=O)OC(C)(C)C [Example 195, tert-butyl (3S)-3-({5-[3-(cyclo-propylcarbamoyl)-1H-indazol-6-yl]-2-(deutero)methoxypyridin-3-yl}formamido)butanoate]	36		39
[2H]C([2H])([2H])Oc1ncc(-c2ccc3c(C(=O)NC4CC4)n[nH]c3c2)cc1C(=O)N[C@H](C)CC(=O)OC(C)(C)C [Example 196, tert-butyl (3R)-3-({5-[3-(cyclo-propylcarbamoyl)-1H-indazol-6-yl]-2-(deutero)methoxypyridin-3-yl}formamido)butanoate]	84		19
[2H]C([2H])([2H])Oc1ncc(-c2ccc3c(C(=O)NC([2H])([2H])C([2H])([2H])[2H])n[nH]c3c2)cc1C(=O)N[C@@H](C)c1cccc(C(F)(F)F)c1 [Example 230, N-[(1,1,2,2,2-deutero)ethyl]-6-[6-(deutero)methoxy-5-{[(1S)-1-[3-(trifluoromethyl)phenyl]ethyl]car-bamoyl}pyridin-3-yl]-1H-indazole-3-carboxamide]	11	55	
[2H]C([2H])([2H])Oc1ncc(-c2ccc3c(C(=O)NC([2H])([2H])C([2H])([2H])[2H])n[nH]c3c2)cc1C(=O)N[C@@H]1CN(C(=O)C2CC(F)(F)C2)C[C@@H]1F [Example 192, 6-(5-{[(3R,4S)-1-(3,3-difluorocyclo-butanecarbonyl)-4-fluoropyrrolidin-3-yl]carbamoyl}-6-(deutero)methoxy-pyridin-3-yl)-N-[(1,1,2,2,2-deutero)-ethyl]-1H-indazole-3-carboxamide]	110	430	

— patent US12172975B2, “1H-indazole carboxamides as receptor-interacting protein kinase 1 inhibitors (RIPK1)” (BRISTOL-MYERS SQUIBB COMPANY, priority 2018, dated 2024)
